Assay results published in patent US20230174484A1, “ANTAGONISTS OF GPR39 PROTEIN” (Oregon Health & Science University, priority 2020, published 2023).
“Also recorded” adds a separate entry of the source. Values belong to the compound of their own block, whether it stands above or below them.

Experiments:
[1] = test system: spontaneously hypertensive rat (SHR); assay: Acute intravenous effect on blood pressure in the spontaneously hypertensive rat; format: in vivo; details: for BP reduction, percentage of pre-administration baseline: lowest value over 10 min, isoflurane anaesthesia
Experimental: Decrease in BP was expressed as a percentage of baseline BP (*p<0.05).
The effect of acute intravenous administration of EXAMPLE 34 on BP in the spontaneously hypertensive rat (SHR) was determined. […] At 10 mg/kg, BP was reduced by 15%, and at 25 mg/kg, the reduction exceeded 20% of pre-administration baseline. EXAMPLE 34 was administered slowly via bolus injections through the jugular vein in a vehicle consisting of 100% PEG 400, and the change in BP after administration (lowest value over 10 min) was normalized to pre-administration baseline. This was the first proof of principle that pharmacological inhibition of GPR39 reduced BP acutely in a well-established animal model of hypertension.

[2] = test system: wild-type mice, left coronary artery occlusion/reperfusion; assay: No reflow after coronary occlusion and reperfusion in mice (Thioflavin S / Evans Blue); format: in vivo, mouse; details: WT mice, 1.5 mg/kg i.v. 15 min after occlusion, 45 min occlusion, 2 hr reperfusion, versus vehicle
Experimental: FIGS. 4A-4D depict no reflow data from WT, GPR39 KO, and EXAMPLE 34 mice. Thioflavin-S and Evans Blue were injected ante-mortem and measurement of no reflow (area without Evans Blue on the right panel). […] EXAMPLE 34 was given 15 min after coronary occlusion which lasted a total of 45 min followed by 2 hour reperfusion. The role of pericytes was examined in no reflow after reperfusion in a separate group of animals since infarct size and no reflow post-mortem cciuid not be measured in the same animals, Thioflavin S, a perfusion marker, was injected into the left coronary artery after reperfusion. Thereafter, the left coronary artery was briefly re-occluded and 0.2 ml Evan's blue (1%) injected. The heart was then excised, transversely sliced into 5-6 pieces and photographed under UV light (under which Thioflavin S fluoresces blue) to identify the area of no reflow and under standard lighting to identify the AAR, and the no reflow zone expressed as a percent of the AAR.

[3] = test system: wild-type mice, left coronary artery occlusion/reperfusion; assay: Infarct size after left coronary artery occlusion and reperfusion in mice; format: in vivo, mouse; details: WT mice, single dose 15 min after occlusion, 45 min occlusion, 2 hr reperfusion, versus vehicle
Experimental: FIG. 3A depicts the timeline of experimental design. EXAMPLE 34 was given 15 min after left coronary occlusion as a single dose during a 45 min occlusion followed by 2 hr of reperfusion.
Infarct size in both FIG. 3C and FIG. 3D is expressed as a percent of AAR defined by Evans Blue. Summary data are depicted to the right of actual images from single representative animals.
The role of pericytes in tissue necrosis following coronary occlusion was examined (FIG. 3A).

human GPR39 receptor = biological target: T1, human GPR39 receptor (Homo sapiens, UniProt O43194); assay: Measurement of intracellular calcium response in PC3 cells (FLIPR), antagonism of the C3 agonist response; format: cell-based
T1 construct: PC3 Cells, Expressing the Endogenous Human GPR39 Receptor; endogenous in cells; host or cells: PC3 (human prostate adenocarcinoma) cells
T1 sequence (O43194 1-453): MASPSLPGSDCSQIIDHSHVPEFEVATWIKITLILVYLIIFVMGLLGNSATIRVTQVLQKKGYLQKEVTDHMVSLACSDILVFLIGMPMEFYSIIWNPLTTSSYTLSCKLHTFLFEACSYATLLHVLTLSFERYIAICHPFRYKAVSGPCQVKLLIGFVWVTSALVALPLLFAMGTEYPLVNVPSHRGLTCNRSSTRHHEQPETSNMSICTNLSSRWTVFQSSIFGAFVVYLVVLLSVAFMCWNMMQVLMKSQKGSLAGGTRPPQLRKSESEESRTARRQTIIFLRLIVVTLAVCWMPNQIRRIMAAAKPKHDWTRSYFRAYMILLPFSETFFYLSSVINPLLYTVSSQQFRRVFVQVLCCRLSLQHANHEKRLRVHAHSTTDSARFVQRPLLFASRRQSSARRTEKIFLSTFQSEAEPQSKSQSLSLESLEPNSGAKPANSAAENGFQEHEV
How it was run: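 PC3 cells with endogenous human GPR39 were loaded with Calcium-6 and read by FLIPR, with compounds tested in buffer with 30 μM final ZnCl2 and 0.32% DMSO. Peak Ca2+ signal was scored as % inhibition of the EC90 C3 response, fitted by four-parameter logistic. Functional pKi was derived via the modified Cheng-Prusoff equation.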

Ki (human GPR39 receptor; functional pKi (modified Cheng-Prusoff), inhibition of the C3 (TC-G 1008) response at EC90, 30 μM ZnCl2, read-out: fpKi activity): 1260 to 6310 nM
Compound: O=C(Nc1ccc(C(=O)N2CCN(c3ncnc4ccsc34)CC2)c(N2CCCCCC2)c1)C1CC1 [EXAMPLE 34, N-[3-(azepan-1-yl)-4-(4-thieno[3,2-d]pyrimidin-4-ylpiperazine-1-carbonyl)phenyl]Cyclopropanecarboxamide]
BP reduction, percentage of pre-administration baseline ([1]; 10 mg/kg i.v. bolus): 15%
BP reduction, percentage of pre-administration baseline ([1]; 25 mg/kg i.v. bolus): exceeded 20%
Effect on BP in SHR ([1]; i.v., concentrations higher than 10 mg/kg): significantly reduced BP
No reflow zone / AAR ratio [2]: negligible no reflow zones; also recorded: significant reduction in no reflow/AAR ratio
Infarct size/area at risk (AAR) ratio [3]: significantly smaller; also recorded: significant reduction in infarct size

EC90 (human GPR39 receptor; PC-3, hGPR39 receptor agonist, calcium response, read-out: EC90 (concentration producing 90% of the maximal response)): 1500 nM
Compound: CNc1nc(NCc2ccc(NS(C)(=O)=O)cc2Cl)cc(-c2ccccn2)n1 [Example C3, reference compound]

Compound: (2R or 2S) N-[6-(3,3-difluoropyrrolidin-1-yl)-5-(4-methyl-2-phenylpiperazine-1-carbonyl)pyridin-2-yl]cyclopropanecarboxamide [Example 148b]
fpKi activity (human GPR39 receptor; functional pKi (modified Cheng-Prusoff), inhibition of the C3 (TC-G 1008) response at EC90, 30 μM ZnCl2): + (An fpKi ranging from 5.2 to 5.9 is reported as “+”)
